Reference: article PMC11272584 (Nature Metabolism, 2024)
One block for each molecule: values may come before it.

Experiments:
[1] = tested on: GIPR W90Lfs*17; test: cAMP accumulation; format: cell-based, human; conditions: normalized to WT efficacy at 100 pM; n = 5
Experimental: HEK293 (CRL-1573, American Type Culture Collection) and β-arrestin 1/2 knockout cells, generated from HEK293A[48], were used for cAMP measurement, homologues competition binding and β-arrestin 2 recruitment. For the internalization assay, endosomal signalling and basal receptor localization experiments, HEK293A (R70507, Thermo Fisher) cells were used. Both cell lines were cultured at 5% CO2 at 37 °C in Roswell Park Memorial Institute GlutaMAX-I supplemented with 10% fetal bovine serum, 180 units ml^−1 penicillin, and 45 g ml^−1 streptomycin. For the cAMP and binding experiments, cells were transfected with the calcium phosphate precipitation method[49]. The polyethyleneimine (PEI) transfection method was used for the β-arrestin 2 recruitment assays[50], endosomal signalling and basal receptor localization assays, while the lipofectamine transfection method was used for the internalization assay.
cAMP production was measured with the DiscoverX Hithunter cAMP assay according to the manufacturer’s protocol (DiscoverX). […] On the day of the assay, the cells were washed twice with HEPES-buffered saline (HBS) and incubated with HBS and 1 mM 3-isobutyl-1-methylxanthine for 30 min at 37 °C. […] After a 3-h incubation on a shaking table in the dark, the cAMP accumulation was measured based on luminescence with a Perkin Elmer EnVision 2104 Multilabel Microplate Reader. […]

[2] = biological target: GIPR C84Pfs*70; test: Homologous competition binding; parameters: species or system human; key: NB: no binding; conditions: n = 3
Experimental: (§1) Binding experiments were performed simultaneously with the same transiently transfected HEK293 cells used for the cAMP experiments to enable the correlation of receptor expression with signalling between assays. In brief, 1 day before the assay, the transfected cells were seeded in a clear 96-well plate. […] On the assay day, the cells were washed twice with 4 °C binding buffer (50 mM HEPES buffer (pH 7.2), 1 mM CaCl2, 5 mM MgCl2 and 0.5% (wt/vol) bovine serum albumin) and incubated for 15 minutes at 4 °C. […] After incubation, the cells were washed in ice-cold binding buffer and lysed with 200 mmol l^−1 NaOH with 1% sodium dodecyl sulphate for 30 min. The gamma radiation was measured with a 2470 Wizard2 Automatic Gamma Counter.
(§2) To obtain Emax, EC50, Bmax, Kd and IC50 values, we analysed the data with the non-linear regression curve fitting program GraphPad Prism Software 9 (GraphPad).
(§3) The Bmax was calculated according to the following equation[51]: Bmax=B0×IC50/[L] in which B0 represents the total specific binding and [L] is the ligand concentration. The equilibrium dissociation constant (Kd) was obtained with the equation[51]: Kd=IC50−[L]

[3] = tested on: GIPR W90Lfs*17; test: Homologous competition binding; parameters: species or system human; conditions: normalized to WT GIPR; SEM 0.5, n = 3
Experimental: as §1, §2, §3

[4] = biological target: GIPR Y258Sfs*50; test: Homologous competition binding; parameters: species or system human; key: NB: no binding; conditions: n = 4
Experimental: as §1, §2, §3

[5] = biological target: T1, GIPR R43G (Homo sapiens, UniProt P48546, R43G); test: cAMP accumulation; format: cell-based
T1 construct: host or cells: HEK293
T1 sequence (P48546 22-466 R43G): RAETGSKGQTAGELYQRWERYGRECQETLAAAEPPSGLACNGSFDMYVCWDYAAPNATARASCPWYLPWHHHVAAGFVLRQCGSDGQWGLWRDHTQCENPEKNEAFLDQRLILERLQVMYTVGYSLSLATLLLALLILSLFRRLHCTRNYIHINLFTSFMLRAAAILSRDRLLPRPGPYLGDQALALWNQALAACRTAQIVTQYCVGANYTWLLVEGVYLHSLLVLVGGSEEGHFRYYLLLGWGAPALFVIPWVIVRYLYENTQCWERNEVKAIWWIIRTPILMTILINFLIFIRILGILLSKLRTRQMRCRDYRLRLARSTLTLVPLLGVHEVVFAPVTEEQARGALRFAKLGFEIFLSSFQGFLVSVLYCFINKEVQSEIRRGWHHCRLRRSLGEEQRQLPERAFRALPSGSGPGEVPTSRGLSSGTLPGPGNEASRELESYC
Experimental: HEK293 (CRL-1573, American Type Culture Collection) and β-arrestin 1/2 knockout cells, generated from HEK293A[48], were used for cAMP measurement, homologues competition binding and β-arrestin 2 recruitment. […] Both cell lines were cultured at 5% CO2 at 37 °C in Roswell Park Memorial Institute GlutaMAX-I supplemented with 10% fetal bovine serum, 180 units ml^−1 penicillin, and 45 g ml^−1 streptomycin. For the cAMP and binding experiments, cells were transfected with the calcium phosphate precipitation method[49].
cAMP production was measured with the DiscoverX Hithunter cAMP assay according to the manufacturer’s protocol (DiscoverX). […] On the day of the assay, the cells were washed twice with HEPES-buffered saline (HBS) and incubated with HBS and 1 mM 3-isobutyl-1-methylxanthine for 30 min at 37 °C. […] After the incubation, the assay medium was removed from the plate and the cells were washed with 30 µl PBS and treated with 40 µl enzyme donor–lysis buffer–chemiluminescent reagents and 10 µl cAMP antibodies for 60 min before 40 µl enzyme acceptor solution added. After a 3-h incubation on a shaking table in the dark, the cAMP accumulation was measured based on luminescence with a Perkin Elmer EnVision 2104 Multilabel Microplate Reader.

[6] = tested on: GIPR variants (groups); test: cAMP accumulation; format: cell-based, human
[7] = tested on: GIPR variants (groups); test: β-arrestin 2 recruitment (BRET);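 also: BRET readout of β-arrestin 2 recruitment in transiently transfected HEK293 cells expressing WT GIPR or a GIPR variant plus GPCR kinase 2, Rluc8 donor and citrine acceptor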
Experimental: Both cell lines were cultured at 5% CO2 at 37 °C in Roswell Park Memorial Institute GlutaMAX-I supplemented with 10% fetal bovine serum, 180 units ml^−1 penicillin, and 45 g ml^−1 streptomycin. […] The polyethyleneimine (PEI) transfection method was used for the β-arrestin 2 recruitment assays[50], endosomal signalling and basal receptor localization assays, while the lipofectamine transfection method was used for the internalization assay.
Measurement of β-arrestin 2 recruitment was performed with a BRET assay. Two days before the assay, the HEK293 cells were transiently transfected with either WT GIPR or the GIPR variants together with the donor Rluc8-Arrestin-3-Sp1, the acceptor mem-linker-citrine-SH3 and the GPCR kinase 2 to facilitate β-arrestin 2 recruitment. On assay day, the cells were washed with PBS and resuspended in PBS supplemented with 5 mmol l^−1 glucose. Subsequently, 85 µl of the cell suspension was transferred to a white 96-well plate and 10 µl of 50 µM coelenterazine-h was added.

Kd (Binding) [2]: NB
Binding (Bmax) ([2]; normalized to WT GIPR): NB
Binding (Bmax) [3]: 1.36
Kd (Binding) [4]: NB
Binding (Bmax) ([4]; normalized to WT GIPR): NB
Molecule: GIP(1-42)
cAMP (Efficacy of 100 pM) [1]: 0.531

Efficacy at 100pmol (cAMP) [5]: 1.1583
B1: R43G (protein)
chain: T1 sequence (P48546 22-466 R43G)
In vitro groups (cAMP) ([6]; cAMP part of the in vitro group): WT-like_camp
percentage_camp ([6]; cAMP production compared with WT): >50% cAMP
Beta, cAMP ([6]; in vitro cAMP production per GIPR variant): 1.1583
In vitro groups (β-arrestin) ([7]; arr part of the in vitro group): LoF_arr
Beta, Barr ([7]; in vitro β-arrestin recruitment per GIPR variant): 0.4783
